“And” between values parts separate entries of the source, which are not always exact repeats. Equal entries are not always repeated. Where two headings read alike, the source gives them in different places.
Experiments:
MDM2 [1] = target: T1, MDM2 (Homo sapiens, UniProt Q00987); test: MDM2 binding (FP53 displacement) by HPLC fractions of resynthesized hit reactions
Procedure: For hits from the MDM2 screen, reactions were performed in the same way but at a 50 nmol scale, and purified with the same method but a 10–80% gradient of solvent B and over 22 min. Fractions were lyophilized and dissolved in 40 μL of DMSO, 160 μL of water was added, and 5 μL of each fraction was transferred to a 384-well plate (Nunc, 264705), and 15 μL of premixed MDM2/FP53 peptide were added (final concentrations: 1.2 μM MDM2, 50 nM FP53, 5% DMSO).

MDM2 [2] = target: T1, MDM2; test: MDM2 binding screen of Libraries 3 and 4: displacement of fluorescent probe F-M8 at 750 nM macrocycle; settings: 750 nM macrocycle; crude reaction; probe F-M8
In short: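 Competition with nutlin-3a was run using the fluorescein conjugate. Library members came from scaffolds reacted 6 h at room temperature with carboxylic acids (20 equiv.), HBTU and DABCO in DMSO. Quenching was overnight in Tris-Cl pH 7.4 buffer with 0.01% Tween20.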

MDM2 [3] = target: T1, MDM2; test: IC50 of purified MDM2-binding macrocycles, fluorescence polarization competition with FP53; settings: for IC50: HPLC-purified macrocycle, FP displacement of fluorescent reporter peptide; for anisotropy: replicates 1-3
Procedure: Volumes of 5 μL of purified macrocycles (20 mM in DMSO) were serial diluted two-fold in 100% DMSO in a low dead-volume ECHO source plate. Using acoustic droplet transfer, 150 nL of each dilution was transferred to a 384 well low volume polystyrene plate (Nunc, 264705). […] Fluorescence anisotropy was measured as described above. The percentage of bound inhibitor was calculated using the following equation4 %boundinhibitor=N−X/N−P×100 where N is the average anisotropy of the DMSO controls, X is the anisotropy value obtained for each well, and P is the average anisotropy of the unbound probe. The IC50s were determined by plotting the percent of bound inhibitor against the logarithm of the corresponding macrocycle concentration, and the curves were fitted in GraphPad Prism 6 as described above.

T1 sequence (Q00987 whole entry): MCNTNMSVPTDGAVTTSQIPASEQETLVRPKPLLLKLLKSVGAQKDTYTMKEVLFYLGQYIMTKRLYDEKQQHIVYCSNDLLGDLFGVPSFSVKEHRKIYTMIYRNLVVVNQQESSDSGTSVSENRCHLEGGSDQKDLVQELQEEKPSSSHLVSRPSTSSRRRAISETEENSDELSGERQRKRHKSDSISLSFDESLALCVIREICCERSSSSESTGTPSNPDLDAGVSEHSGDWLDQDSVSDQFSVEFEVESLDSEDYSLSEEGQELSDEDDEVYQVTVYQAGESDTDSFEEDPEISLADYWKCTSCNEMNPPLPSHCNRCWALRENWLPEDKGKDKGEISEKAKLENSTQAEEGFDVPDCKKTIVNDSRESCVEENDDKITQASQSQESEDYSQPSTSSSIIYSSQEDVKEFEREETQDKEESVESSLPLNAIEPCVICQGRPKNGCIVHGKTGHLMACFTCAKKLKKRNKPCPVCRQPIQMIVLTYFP

Structure (SMILES): O=C(/C=C/c1ccccc1)NC[C@@H]1NC(=O)[C@H]2CCCN(C2)C(=O)CCSSCCNC(=O)[C@H](Cc2c[nH]c3ccccc23)NC1=O [M8]
- Fraction bound (fraction fluorescent probe displaced) (MDM2 [1]; HPLC Fraction 1 of acylation reaction): 0.08
- Fraction bound (fraction fluorescent probe displaced) (MDM2 [1]; HPLC Fraction 2 of acylation reaction): 0.25
- Fraction bound (fraction fluorescent probe displaced) (MDM2 [1]; HPLC Fraction 3 of acylation reaction): 0.02
- Fraction bound (fraction fluorescent probe displaced) (MDM2 [1]; HPLC Fraction 4 of acylation reaction): -0.000869
- Fraction bound (fraction fluorescent probe displaced) (MDM2 [1]; HPLC Fraction 5 of acylation reaction): -0.0422
- Fraction bound (fraction fluorescent probe displaced) (MDM2 [1]; HPLC Fraction 6 of acylation reaction): -0.000869
- Fraction bound (fraction fluorescent probe displaced) (MDM2 [1]; HPLC Fraction 7 of acylation reaction): 0.02
- Fraction bound (fraction fluorescent probe displaced) (MDM2 [1]; HPLC Fraction 8 of acylation reaction): 0.02
- Fraction bound (fraction fluorescent probe displaced) (MDM2 [1]; HPLC Fraction 9 of acylation reaction): 0.04
- Fraction bound (fraction fluorescent probe displaced) (MDM2 [1]; HPLC Fraction 10 of acylation reaction): -0.0422
- Fraction bound (fraction fluorescent probe displaced) (MDM2 [1]; HPLC Fraction 11 of acylation reaction): -0.0422
- Fraction bound (fraction fluorescent probe displaced) (MDM2 [1]; HPLC Fraction 12 of acylation reaction): -0.0216
- Fraction bound (fraction fluorescent probe displaced) (MDM2 [1]; HPLC Fraction 13 of acylation reaction): 0.37
- Fraction bound (fraction fluorescent probe displaced) (MDM2 [1]; HPLC Fraction 14 of acylation reaction): 0.04
- Fraction bound (fraction fluorescent probe displaced) (MDM2 [1]; HPLC Fraction 15 of acylation reaction): -0.13
- Fraction bound (fraction fluorescent probe displaced) (MDM2 [1]; HPLC Fraction 16 of acylation reaction): -0.0216
- Fraction bound (fraction fluorescent probe displaced) (MDM2 [1]; HPLC Fraction 17 of acylation reaction): -0.0216
- Fraction bound (fraction fluorescent probe displaced) (MDM2 [1]; HPLC Fraction 18 of acylation reaction): -0.21
- Fraction bound (fraction fluorescent probe displaced) (MDM2 [1]; HPLC Fraction 19 of acylation reaction): -0.17
- Fraction bound (fraction fluorescent probe displaced) (MDM2 [1]; HPLC Fraction 20 of acylation reaction): -0.23
- displacement of fluorescent probe from MDM2 (MDM2 [2]): 21%
- IC50 (MDM2 [3]; average of 3 replicates, read-out: IC50 Average): 0.9 µM
- IC50 (MDM2 [3]; replicate 1, read-out: IC50 Replicate 1): 1 µM
- IC50 (MDM2 [3]; replicate 2, read-out: IC50 Replicate 2): 0.84 µM
- IC50 (MDM2 [3]; replicate 3, read-out: IC50 Replicate 3): 0.86 µM
- displacement of fluorescent peptide probe from MDM2 (MDM2 [3]; HPLC-purified macrocycles, FP competition): efficiently displaced
- anisotropy (MDM2 [3]; Log[Macrocycle] M -4.0): 50 and 44 and 45
- anisotropy (MDM2 [3]; Log[Macrocycle] M -4.3): 50 and 43 and 47
- anisotropy (MDM2 [3]; Log[Macrocycle] M -4.6): 52 and 45 and 51
- anisotropy (MDM2 [3]; Log[Macrocycle] M -4.9): 53 and 50 and 49
- anisotropy (MDM2 [3]; Log[Macrocycle] M -5.2): 59 and 42 and 53
- anisotropy (MDM2 [3]; Log[Macrocycle] M -5.5): 61 and 53 and 54
- anisotropy (MDM2 [3]; Log[Macrocycle] M -5.8): 67 and 55 and 59
- anisotropy (MDM2 [3]; Log[Macrocycle] M -6.1): 73 and 65 and 68
- anisotropy (MDM2 [3]; Log[Macrocycle] M -6.4): 80 and 68 and 73
- anisotropy (MDM2 [3]; Log[Macrocycle] M -6.7): 85 and 73 and 80
- anisotropy (MDM2 [3]; Log[Macrocycle] M -7.0): 87 (2×) and 82
- anisotropy (MDM2 [3]; Log[Macrocycle] M -7.3): 92 and 79 and 84
- anisotropy (MDM2 [3]; Log[Macrocycle] M -7.6): 94 and 80 and 85
- anisotropy (MDM2 [3]; Log[Macrocycle] M -7.9): 90 and 80 and 83
- anisotropy (MDM2 [3]; Log[Macrocycle] M -8.2): 94 and 77 and 85
- anisotropy (MDM2 [3]; Log[Macrocycle] M -8.5): 93 and 83 (2×)
